These results are taken from US20120283280A1, “IMIDAZOTETRAZINONE-BASED COMBI-MOLECULES” (priority 2011, published 2012).

For orientation: IC50 means the midpoint of a concentration-inhibition curve.

One series has as its target T1, EGFR tyrosine kinase (Homo sapiens, UniProt P00533).
T1 construct: purchased
Briefly: EGFR kinase enzyme assay (ELISA, PGT phosphorylation). The series is classed as biochemical. To be noted: ELISA, 8 minute exposure, PGT substrate; read-out: IC50, EGFR TK inhibition. As to the method:
EGFR Kinase Enzyme Assay: The EGFR kinase assay was performed following a known procedure. Briefly, Nunc MaxiSorp (Nalge Nunc International, Rochester, N.Y., USA) 96-well plates were incubated overnight at 37° C. with 100 μL/well of […] poly(L-glutamic acid-L-tyrosine, 4:1) PGT in PBS. Excess PGT was removed and the plates were washed three times with wash buffer (0.1% Tween-20 in PBS). The kinase reaction was performed using commercially available isolated EGFR (4.5 ng/well). The compound was added and phosphorylation was initiated by the addition of 20 μL/well of ATP (50 μM). After 8 min at room temperature with constant shaking, the reaction was terminated by aspiration of the reaction mixture and rinsing of the plates (four times) with wash buffer. Phosphorylated PGT was detected following a 25 min incubation with 50 μL/well of horseradish peroxidase-conjugated PY20 anti-phosphotyrosine antibody (Santa Cruz Biotechnology, Santa Cruz, Calif., USA) diluted to […] in blocking buffer (3% bovine serum albumin and 0.05% Tween-20 in PBS). The antibody was removed by aspiration and the plates washed four times with wash buffer. The signals were developed by the addition of 50 μL/well of 3,3′,5,5′-tetramethylbenzidine peroxidase substrate (Kirkegaard and Perry Laboratories, Gaithersberg, Md., USA). Following blue color development, H2SO4 (50 μL; 0.09 M) was added per well to stop the reaction. The plates were read at 450 nm using a Bio-Rad ELISA reader (model 2550; Bio-Rad, Hercules, Calif., USA).
Inhibition of EGFR TK: The EGFR TK inhibitory activity of JDF12 and its metabolite JDF04R was tested in a short 8 minute exposure to an ELISA assay. The assay was based on the inhibition of phosphorylation of poly(L-glutamic acid-L-tyrosine, 4:1) (PGT) by EGFR tyrosine kinase. […] As expected, the EGFR TK-inhibitory activity of MTZ was negligible (FIG. 1).
On the technique in general: In an ELISA, binding on a coated surface is turned into a signal by an enzyme label.

The target of series [1] is T2, EGFR autophosphorylation in DU145 cells (Homo sapiens, UniProt P00533).
T2 construct: endogenous in cells; host or cells: DU145
Briefly: EGFR phosphorylation assay, whole cell (Western blot). The format is cell-based. As to the method:
EGFR Phosphorylation Assay: DU145 cells (1×10^6) were preincubated in a six-well plate using 10% serum at 37° C. over a period of 24 h followed by a starving period of 24 h. The cells where then exposed to a dose range of each drug over a period of 2 h and subsequently treated with 50 ng/ml of EGF for 20 min at 37° C. The cells were washed with PBS and resuspended in cold lysis buffer [50 mmol/L Tris-HCl (pH 7.5), 150 mmol/L NaCl, 1% NP40, 1 mmol/L EDTA, 5 mmol/L NaF, 1 mmol/L Na3VO4, protease inhibitor tablet (Roche Biochemicals, Laval, Quebec, Canada)]. The lysates were kept on ice for 30 min and collected by centrifugation at 10,000 rpm for 20 min at 4° C. The concentrations of protein were determined using the Bio-Rad protein assay kit (Bio-Rad Laboratories, Hercules, Calif.). Equal amounts of protein […] were subjected to a 10% SDS-polyacrylamide gel electrophoresis (SDS-PAGE) and transferred to a polyvinylidene difluoride membrane (Millipore, Bedford, Mass.). Nonspecific binding on the membrane was minimized with a blocking buffer containing bovine serum albumin (5%) in PBS-Tween 20. The membranes were subsequently incubated with primary anti-phosphotyrosine antibody (Upstate Biotechnology, Lake Placid, N.Y.) for the detection of phosphotyrosine. The membranes were stripped and reprobed with anti-EGFR (Neomarkers, Fremont, Calif.) for determination of corresponding receptor levels. Blots were incubated with horseradish peroxidase-goat anti-mouse antibody (1:1,000 dilution; Cell Signaling Research, Beverly, Mass.), and the bands visualized with an enhanced chemiluminescence system (Amersham Pharmacia Biotech,. Little Chalfont, UK). Band intensities were measured using the SynGene GeneTools software package.
Inhibition of EGFR TK in Whole Cell Assay: DU145 cells were starved for 24 h and stimulated with EGF in the presence of the different drugs over a period of 2 h. Inhibition of autophosphorylation of EGFR was analyzed by Western blotting. The observed order of potency from this whole cell assay paralleled the one previously observed with ELISA. […]

The next series has as its system DU145 cells. Briefly: Annexin V binding analysis (apoptosis). The format is cell-based, human. To be noted: 25 μM, 48 h exposure. As to the method:
Annexin V binding Analysis: Cells were pre-incubated in 6-well plates until confluence and then exposed to a dose range of each drug over a period 48 h. The cells were subsequently harvested and incubated with annexin V-FITC and propidium iodide (PI) using the apoptosis Detection Kit (BD Bioscience Pharmingen, USA) and the supplier's protocol. Annexin V-FITC and PI binding were analyzed using a Becton-Dickinson FACScan. Data were collected using logarithmic amplification of both the FL1 (FITC) and FL2 (PI) channels. Quadrant analysis of coordinate dot plots was performed with CellQuest software.
Induction of Apoptosis: Annexin V-FITC (FL1-H) and PI (FL2-H) staining (detected by flow cytometry) was used to distinguish viable (PI-/FITC−), early apoptotic (PI-/FITC+), late apoptotic (PI+/FITC+) and necrotic (PI+/FITC−) cells. […] JDF04R, Iressa and MTZ however, induced only barely detectable levels of apoptosis (<10%). The results are indicative that the combined EGFR TK inhibitory and DNA damaging properties of JDF12 can induce more cell apoptosis than observed with a single-function drug (e.g. Iressa and MTZ) alone (FIG. 7a-c).

The nature of series [2]: Dose finding and comparative toxicity study in mice. On the set-up: key to Vital Sign, Day 8 / Vital Sign, Day 10 / Vital Sign, Day 16 / Vital Sign, Day 1 / Vital Sign, Day 3 / Vital Sign, Day 6: Normal (i.e. No sign of Toxicity); BCS = 2: BCS (Body Condition Score) = 2 indicates that mice are underconditioned (observable signs include segmentation of the vertebral column, palpability of the dorsal pelvic bones). The format is in vivo. From the text:
The results are further illustrated hereinbelow in Table 4.

Setting [3] is: CD-1 mice (n = 6), 100 mg/kg once every other day.

Entries after “also recorded” stand apart in the source; their conditions may differ.

T2 sequence (P00533 25-1210): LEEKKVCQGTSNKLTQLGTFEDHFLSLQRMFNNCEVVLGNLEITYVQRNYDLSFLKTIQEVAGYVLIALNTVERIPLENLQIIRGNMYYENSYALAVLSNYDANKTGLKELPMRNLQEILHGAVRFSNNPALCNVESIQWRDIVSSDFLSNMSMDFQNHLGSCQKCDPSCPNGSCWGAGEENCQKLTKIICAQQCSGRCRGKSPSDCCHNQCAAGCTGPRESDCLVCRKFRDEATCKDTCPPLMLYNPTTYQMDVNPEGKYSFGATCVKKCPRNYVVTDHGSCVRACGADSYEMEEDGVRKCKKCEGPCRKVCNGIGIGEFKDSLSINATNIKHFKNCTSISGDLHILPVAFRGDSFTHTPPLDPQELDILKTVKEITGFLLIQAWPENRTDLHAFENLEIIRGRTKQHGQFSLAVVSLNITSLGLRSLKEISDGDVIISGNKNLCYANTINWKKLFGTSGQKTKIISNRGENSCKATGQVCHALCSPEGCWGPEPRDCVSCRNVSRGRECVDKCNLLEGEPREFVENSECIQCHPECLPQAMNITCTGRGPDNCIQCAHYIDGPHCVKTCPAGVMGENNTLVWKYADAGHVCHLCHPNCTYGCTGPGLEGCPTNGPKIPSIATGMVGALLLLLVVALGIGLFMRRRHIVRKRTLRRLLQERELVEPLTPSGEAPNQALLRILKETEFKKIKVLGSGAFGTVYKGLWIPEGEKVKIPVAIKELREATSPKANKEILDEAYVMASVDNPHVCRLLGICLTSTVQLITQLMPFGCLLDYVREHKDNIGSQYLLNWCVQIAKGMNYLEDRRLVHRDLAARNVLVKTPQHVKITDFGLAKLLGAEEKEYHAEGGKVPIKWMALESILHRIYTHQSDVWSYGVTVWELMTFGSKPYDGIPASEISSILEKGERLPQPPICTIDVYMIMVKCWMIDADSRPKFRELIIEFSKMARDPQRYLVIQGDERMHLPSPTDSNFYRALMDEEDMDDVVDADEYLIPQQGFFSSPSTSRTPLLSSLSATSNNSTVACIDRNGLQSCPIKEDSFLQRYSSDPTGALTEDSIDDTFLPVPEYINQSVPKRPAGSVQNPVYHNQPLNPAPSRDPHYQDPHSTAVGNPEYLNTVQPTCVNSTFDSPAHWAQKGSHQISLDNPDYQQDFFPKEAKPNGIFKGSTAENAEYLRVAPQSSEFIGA
T1 sequence (P00533 25-1210): as above

On to `O=C(Nc1ccc2ncnc(Nc3cccc(Cl)c3)c2c1)c1ncn2c(=O)n(CCCl)nnc12` [JDF12], for which the IC50 on EGFR tyrosine kinase was 0.62 µM. This compound also had an IC50 in series [1] (DU145 cells, EGF stimulated, 2 h drug exposure) of 12 µM. The “potency less than that of JDF04R (fold)” value in series [1] (DU145 whole cell assay) was “approximately 2 fold”. Besides, the late apoptosis entry with DU145 cells is “significant increase in late apoptosis”. Further, in series [2] (setting [3]), the “Vital Sign, Day 1” value is listed as “Normal”; the “Vital Sign, Day 3” value is given as “Normal”; the “Vital Sign, Day 6” value was “Normal”; the “Vital Sign, Day 8” value is “Normal”. Moreover, in series [2] (setting [3]), the “Vital Sign, Day 10” value is reported as “Normal” and the “Vital Sign, Day 16” value is recorded as “Normal”. Moreover, in series [2] (CD-1 mice, 100 mg/kg), the “toxicity at 100 mg/kg” value is on record as “no signs of toxicity; also recorded: minor toxicity”. The MTD at 14 days in series [2] (male, CD-1, mouse, in vivo, mice, weight loss over a 14-day period, two animals per group, read-out: maximum tolerated dose) was 100 mg/kg.
